Patent US20210138077A1, “SELECTIVE DRUG RELEASE FROM INTERNALIZED CONJUGATES OF BIOLOGICALLY ACTIVE COMPOUNDS” (Seagen Inc., priority 2019, published 2021)
Non-standard residues stand in square brackets, D forms with d. No end group written: not given here. Met(O) = CS(=O)CC[C@H](N)C(=O)O; Cit = NC(=O)NCCC[C@H](N)C(=O)O

Tested on: tumor tissue homogenates derived from four mouse xenograft models (HPAF-II, Ramos, SK-Mel-5, SU-DHL-4)
Assay: Fluorescence assay of tripeptide library: proteolysis by tumor tissue homogenate
Format: biochemical
Conditions: Table 1A; normalized fluorescence, averaged across 4 tumor homogenates (HPAF-II, Ramos, SK-Mel-5, SU-DHL-4)
Experimental: (§1) Fluorescence assay. To a 384 well plate was added a mixture of tumor or normal tissue homogenate and citrate buffer (100 mM, pH 4.5; 9 μL) followed by a fluorescently labelled library compound (1 μL; dissolved in 50% MeCN). The reaction was incubated at 37° C. and fluorescence (330 nm excitation, 450 nm emission) was detected several times over a 6-hr. period. The fluorescence fold change was determined by dividing the fluorescence value at each time point with the background fluorescence when no homogenate was added.
(§2) Tissue Homogenization. Normal tissue or tumor tissue from mouse xenografts were suspended in buffer (50 mM Tris, 150 mM KCl, pH 7.0) and added to a tube containing Matrix D lysing beads (mpbio). The tissue was homogenized with a Precellys™ 24 homogenizer. The homogenized sample was centrifuged at 1000×g for 10 min and the resulting supernatant was collected then frozen at −80° C. until further use.
(§3) The library members were synthesized on cellulose support according to the method by Hilpert, K. et al. in “Peptide arrays on cellulose support: SPOT synthesis, a time and cost efficient method for synthesis of large numbers of peptides in a parallel and addressable fashion”, Nature Protocols (2007) 2(6): 1333-1349, the method of which is specifically incorporated by reference herein, with one important modification. That modification uses laser-perforated cellulose paper so that synthesis of each library member occurs with a clearly defined circular disc. After SPOT synthesis, each circular area, which separately contains a discrete library member, is punched out by a multichannel pipette into individual wells of a microtiter plate. The microtiter plate is then placed into an ammonia chamber to cleave the tripeptide containing model compounds from the cellulose discs. The cleaved compounds were then transferred to a fresh microtiter plate after solubilizing each into 50% aqueous acetonitrile. The contents of the wells were then assessed for susceptibility to proteolysis by tumor tissue homogenate in comparison to a comparator peptide-based drug linker compound having the dipeptide val-cit, which is replaced by the -[P1]-[P2]-[P3]-tripeptides in the library of drug linker compounds, by measuring the fluorescence found in each of the wells of the library after contacting with tumor or normal tissue homogenate and dividing it by the fluorescence found for tumor or normal tissue homogenate cleavage of the comparator dipeptide-containing drug linker compound.
The normalized fluorescence value for tumor homogenate proteolysis is an averaged value for tumor tissue homogenates derived from four mouse xenograft models. Calculation of those normalized values are described following Table 1A.
(§4) A normalized fluorescence value is calculated by dividing the fluorescence value at the final time point (275-315 min) from addition of a tissue homogenate by the fluorescence value when no tissue homogenate was added. That value was then normalized for each peptide in each homogenate by dividing it by the average value for that homogenate. […] The normalized tumor tissue values of Table 1 were then determined by averaging the normalized fluorescence value for each peptide across all 4 cancer homogenates that were tested. Those tumor homogenates were derived from xenograft models for HPAF-II (Nude mouse), Ramos (SCID mouse), SK-Mel-5 (Nude mouse) and SU-DHL-4 (SCID mouse). The normalized normal tissue values of Table 1 were similarly calculated using homogenized bone marrow. The Tumor/Normal ratios of Table 1A were determined by dividing the normalized tumor tissue values by the normalized normal tissue values.

Substance	Normalized Tumor Tissue
Ala-Cit-Cit	2.58
Cit-Cit-Cit	2.82
Cit-Glu-Cit	3.16
DLeu-Leu-Cit	3.70
Glu-Ala-Glu	2.66
Glu-Glu-[Cit]	3.14
Pro-Ala-Glu	2.48
Pro-Ala-[Cit]	3.03
Pro-Cit-Cit	2.54
Pro-Glu-Glu	1.87
Pro-Glu-Lys	1.85
Pro-Glu-[Cit]	2.35
Pro-Lys-Glu	1.88
Pro-[Cit]-Glu	2.27
Thr-Cit-Cit	2.26
[Cit]-Glu-Glu	2.44
[dL]-Leu-Glu	3.45
[dL]-Leu-Lys	2.20
[dL]-Leu-[Met(O)]	1.70
[dL]-Phe-Glu	2.27

Same assay, conditions: Table 1A; normalized tumor tissue value divided by normalized normal tissue value

Substance	Tumor/Normal
Ala-Cit-Cit	2.53
Cit-Cit-Cit	2.52
Cit-Glu-Cit	2.61
DLeu-Leu-Cit	2.70
Glu-Ala-Glu	2.53
Glu-Glu-[Cit]	2.57
Pro-Ala-Glu	3.16
Pro-Ala-[Cit]	2.84
Pro-Cit-Cit	2.67
Pro-Glu-Glu	2.58
Pro-Glu-Lys	2.57
Pro-Glu-[Cit]	2.77
Pro-Lys-Glu	2.59
Pro-[Cit]-Glu	2.68
Thr-Cit-Cit	2.53
[Cit]-Glu-Glu	2.53
[dL]-Leu-Glu	3.09
[dL]-Leu-Lys	2.54
[dL]-Leu-[Met(O)]	2.58
[dL]-Phe-Glu	2.55

Same assay, conditions: Table 1B; normalized fluorescence, averaged across 4 tumor homogenates

Substance	Normalized Tumor
Lys-Glu-[Met(O)]	1.16
Pro-Glu-Ala	1.28
[dL]-Ala-Lys	1.16
[dL]-Glu-Lys	1.06
[dL]-Leu-[Met(O)]	1.70
[dL]-[Cit]-Glu	1.07

Same assay, conditions: Table 1B; normalized tumor value divided by normalized normal value

Substance	Tumor/Normal
Lys-Glu-[Met(O)]	1.66
Pro-Glu-Ala	1.84
[dL]-Ala-Lys	1.70
[dL]-Glu-Lys	1.71
[dL]-Leu-[Met(O)]	2.58
[dL]-[Cit]-Glu	1.67

Tested on: normal human bone marrow homogenate
Assay: Fluorescence assay of tripeptide library: proteolysis by normal tissue homogenate
Format: biochemical
Conditions: Table 1A, normalized fluorescence fold change at final time point (275-315 min), pH 4.5, 37° C.
Experimental: as §1, §2, §3
The normalized normal tissue fluorescence values are from proteolysis by normal human bone marrow. Human bone marrow was chosen as the normal tissue because it is the site of an adverse event (neutropenia) that has been associated with administering to a human subject in need thereof an effective amount of an Antibody Drug Conjugate having drug linker moieties derived from the Drug Linker compound m-val-cit-PABC-MMAE.
as §4

Substance	Normalized Normal Tissue
Ala-Cit-Cit	1.02
Cit-Cit-Cit	1.12
Cit-Glu-Cit	1.21
DLeu-Leu-Cit	1.37
Glu-Ala-Glu	1.05
Glu-Glu-[Cit]	1.22
Pro-Ala-Glu	0.78
Pro-Ala-[Cit]	1.07
Pro-Cit-Cit	0.95
Pro-Glu-Glu	0.73
Pro-Glu-Lys	0.72
Pro-Glu-[Cit]	0.85
Pro-Lys-Glu	0.72
Pro-[Cit]-Glu	0.85
Thr-Cit-Cit	0.89
[Cit]-Glu-Glu	0.97
[dL]-Leu-Glu	1.12
[dL]-Leu-Lys	0.87
[dL]-Leu-[Met(O)]	0.66
[dL]-Phe-Glu	0.89

Same assay, conditions: Table 1B, normalized fluorescence

Substance	Normalized Normal
Lys-Glu-[Met(O)]	0.70
Pro-Glu-Ala	0.70
[dL]-Ala-Lys	0.68
[dL]-Glu-Lys	0.62
[dL]-Leu-[Met(O)]	0.66
[dL]-[Cit]-Glu	0.64
